pIC50, pKd: −log10 of the molar value.
Assays:
[1] = molecular target: T1, Replicase polyprotein 1ab (Severe acute respiratory syndrome coronavirus 2, UniProt P0DTD1); test: Inhibition of SARS-CoV-2 papain-like protease
[2] = molecular target: T1, Replicase polyprotein 1ab; test: Inhibition of SARS-CoV-2 papain-like protease assessed as viral protease-mediated deubiquitination using ubiquitinated substrate incubated for 16 to 18 hrs by fluorescence based assay
[3] = molecular target: T1, Replicase polyprotein 1ab; test: Inhibition of SARS-CoV-2 papain-like protease using fluorescent substrate preincubated for 1 hr by fluorescence based assay
[4] = molecular target: T1, Replicase polyprotein 1ab; test: Inhibition of TAP-tagged SARS-CoV-2 papain-like protease nsp23
[5] = molecular target: T1, Replicase polyprotein 1ab; test: Inhibition of SARS-CoV-2 papain-like protease-mediated de-ISGylation
[6] = molecular target: T1, Replicase polyprotein 1ab; test: Inhibition of TAP-tagged SARS-CoV-2 papain-like protease nsp123
[7] = molecular target: T1, Replicase polyprotein 1ab; test: Binding affinity to CM5 chip immobilized full-length wild-type SARS-CoV-2 papain-like protease (1564 to 1878 residues) expressed in Escherichia coli BL21 (DE3) assessed as dissociation constant incubated for 90 secs by SPR analysis
[8] = molecular target: T1, Replicase polyprotein 1ab; test: Inhibition of N-terminal 3xFlag-His6-tagged SARS-CoV-2 papain-like protease nsp3 (1564 to 1878 residues) expressed in baculovirus infected Sf9 insect cells using Pro3 as substrate by fluorescence based assay
[9] = molecular target: T1, Replicase polyprotein 1ab; test: Inhibition of C-terminal His-tagged SARS-CoV-2 BetaCoV/Wuhan/WIV04/2019 papain-like protease (1564 to 1876 residues) expressed in Escherichia coli BL21 (DE3) using Dabcyl-FTLRGG/APTKV as substrate preincubated for 1 hr followed by substrate addition measured after 3 hrs by FRET assay
[10] = molecular target: T1, Replicase polyprotein 1ab; test: Inhibition of recombinant SARS-CoV-2 papain-like protease using Z-Arg-Leu-Arg-Gly-Gly-AMC as substrate by enzymatic assay
[11] = molecular target: T1, Replicase polyprotein 1ab; test: Inhibition of recombinant SARS-CoV-2 main protease using ATLQAIAS as substrate preincubated for 15 mins by enzymatic assay
[12] = molecular target: T1, Replicase polyprotein 1ab; test: Inhibition of SARS-CoV-2 papain-like protease expressed in Escherichia coli BL21 (DE3) using Z-LRGG-AMC/Z-RLRGG-AMC as substrate preincubated for 30 mins by enzymatic assay
[13] = molecular target: T1, Replicase polyprotein 1ab; test: Inhibition of SARS-CoV-2 papain-like protease using ISG15-Rh as substrate
[14] = molecular target: T1, Replicase polyprotein 1ab; test: Binding affinity to biotin-tagged SARS-CoV-2 papain-like protease expressed in Escherichia coli BL21 (DE3) assessed as dissociation constant incubated for 3 mins by BLI assay
[15] = molecular target: T1, Replicase polyprotein 1ab; test: Inhibition of 6xHis-tagged SARS-CoV-2 papain-like protease expressed in Escherichia coli BL21 (DE3) using ISG15-FITC as substrate incubated for 30 mins by fluorescence polarization assay
[16] = molecular target: T1, Replicase polyprotein 1ab; test: Inhibition of SARS-CoV-2 papain-like protease using RLRGG-AMC as substrate

## O=C1c2ccccc2C(=O)c2oc(-c3ccccc3)nc21
[1]
  pIC50: 6.25

## O=C1c2c(O)cccc2[C@@H]([C@@H]2O[C@H](CO)[C@@H](O)[C@H](O)[C@H]2O)c2cc(CO)cc(O)c21
[2]
  pIC50: 4.76
[3]
  pIC50: 4.79

## Nc1nc2nc[nH]c2c(=S)[nH]1
[4]
  pIC50: 6.00
[5]
  pIC50: 7.00
[6]
  pIC50: 6.30

## C[C@H](c1cccc2ccccc12)N1CCC(C(=O)NCc2cc(F)cc(NC(=O)N3CCN(C)CC3)c2)CC1
[7]
  pKd: 5.59

## O=C1c2ccccc2-c2nc3nnnn3nc21
[8]
  pIC50: 6.59

## C[C@H](c1ccccc1Cl)N(C)Cc1cc(O)ccc1Cl
[9]
  pIC50: 5.18

## CN(Cc1cn(C2C3=C(OC2(C)C)c2ccccc2C(=O)C3=O)nn1)C1=CC(=O)c2ccccc2C1=O (stereo unspecified)
[10]
  pIC50: 5.66

## CN(Cc1cn(C2C3=C(OC2(C)C)c2ccccc2C(=O)C3=O)nn1)C1=C(Br)C(=O)c2ccccc2C1=O (stereo unspecified)
[11]
  pIC50: 4.18
[10]
  pIC50: 5.51

## C[C@@H](NC(=O)c1ccccc1CCC(=O)NNC(=O)/C(C#N)=C/C1CC1)c1cccc2ccccc12
[12]
  pIC50: < 3.70

## OCCc1ccc(O)cc1 [4-(2-Hydroxy-ethyl)-phenol]
[13]
  pIC50: 5.18

## O=Cc1ccc(O)cc1 [4-hydroxybenzaldehyde]
[13]
  pIC50: 5.40

## Cc1ccc(NC2=CC(=O)c3sc(C)nc3C2=O)cc1 [5-(N-(4-Methylphenyl)amino)-2-methyl-4,7-dioxobenzothiazole]
[8]
  pIC50: 6.41

## Oc1c(Cl)cc(Cl)c2cccnc12 [AS-229]
[14]
  pKd: 5.34
[15]
  pIC50: 5.14

## O=C1c2c(O)cccc2[C@H]([C@@H]2O[C@H](CO)[C@@H](O)[C@H](O)[C@H]2O)c2cc(CO)cc(O)c21 [CHEBI:2991]
[2]
  pIC50: 4.80
[3]
  pIC50: 4.88

## Nc1ccc2cc3ccc(N)cc3nc2c1 [acridine-3,6-diamine]
[16]
  pIC50: 5.78
